Source: patent publication US12497359B2, “Acrylamide derivatives” (NRG Therapeutics Ltd, priority 2020, dated 2025)
In brackets after ≈: the same amount, converted by molar mass.

Tests used:
FaSSIF solubility = type: physicochemical; details: kinetic from dmso stock, Fasted state simulated intestinal fluid, 2 hr at 25° C.
Protocol: (§1) Test compounds were prepared as 10 mM stocks in DMSO and 15 μl samples transferred in duplicate into 1.5 mL glass flat bottom vials (BioTech Solutions). Fasted state simulated intestinal fluid (FaSSIF) or PBS (pH 7.4) was added to each vial to final volume of 500 μl. One PTFE encapsulated stir stick (V&P Scientific) was placed in each vial before sealing with PTFE/SIL plugs (BioTech Solutions). Vials were shaken at 1100 rpm for 2 hr at 25° C. Samples were then filtered through MultiScreen Solvinert filter plates (Millipore) via vacuum filtration. Aliquots of filtrate (5 μl) plus 5 μl DMSO were diluted in 490 μl 50% acetonitrile in water containing internal standard. The filtrate was analysed and quantified against a standard of known concentration using LC-MS/MS. Solubility values of the test compound and control compound were calculated as follows: [Sample]=(Area ratiosample*INJ VOL STD*DFsample*[STD])/(Area ratio STD*INJ VOLsample).

mPTP [1] = test: mPTP activity assay in isolated rat brain mitochondria; type: biochemical; details: isolated rat brain mitochondria
Protocol: MPTP activity was measured in brain mitochondria freshly isolated from female Sprague Dawley (250 to 300 gram) rats. Anaesthetised rats were perfused in-situ with ˜40 ml cold Dulbecco's Phosphate Buffered Saline (DPBS), then brains dissected and transferred into 30 ml Isolation Buffer (225 mM mannitol, 75 mM sucrose, 1 mM EGTA, adjusted to pH 7.4 with 1 M NaOH). The brain was minced using tweezers and a scalpel into ˜5 mm pieces then transferred into a 50 ml Potterton Dounce homogenization tube on ice containing 10 ml ice-cold isolation buffer (as above with addition of Complete Protease inhibitor; 1 tablet per 50 ml buffer). Homogenisation was carried out using a teflon pestle at 1800 rpm. The slurry was centrifuged at 2000 g for 10 min at 4° C., then the supernatant centrifuged at 12,000 g for 9 min. The pellet was resuspended with a dounce homogeniser in isolation buffer as above but with the addition of 0.02% digitonin, centrifuged at 12,000 g for 11 min and finally resuspended in 5 ml modified isolation buffer (as above but with EGTA reduced to 0.1 mM).
Test compounds were prepared in 384 well polypropylene assay plates as described above for the liver mitochondria assay. A stock mitochondria/Fluo5N assay solution was prepared in 5.6 ml assay buffer (120 mM mannitol, 40 mM MOPS, 5 mM KH2PO4, 60 mM KCl, 10 mM pyruvate, 2 mM malate, 2 mM MgCl2, 20 μM ADP, 1.26 μM oligomycin A, adjusted to pH 7.4) supplemented with Fluo5N pentapotassium salt (2 μM) and 1 ml mitochondria suspension, then transferred (15 μl) into the assay plate containing test compounds and incubated for 10 min at RT. Assay plates were then transferred to a FLIPR Tetra plate reader (Molecular Devices). Dye fluorescence was then measured every 3 sec for a total of 10 min. After 12 sec, a 2.5 μl bolus of Ca2+(75 μM) was added from a source plate containing 675 μM CaCl2 in FLIPR assay buffer. IC50 values for test compounds were calculated using the fluorescence value collected at the 10 min timepoint with % inhibition calculated using the DMSO control and cyclosporin A values at […].

mPTP [2] = test: mPTP activity assay in isolated rat liver mitochondria (Ca2+ retention, Fluo5N, FLIPR); type: biochemical; details: isolated rat liver mitochondria; average value from multiple experiments (n ≥ 2)
Source text: Pharmacological inhibition or modulation of the mPTP can be measured in well characterised ‘Ca^2+ retention’ assays performed in isolated mitochondria. In vitro, isolated mitochondria rapidly sequester exogenous Ca^2+ until the intramitochondrial Ca^2+ concentration reaches the threshold for mPTP activation. Once the pore is activated, mitochondrial integrity is compromised and the stored Ca^2+ is released. The distribution of Ca^2+ between extra- and intra-mitochondrial compartments can be measured in real time with the use of membrane-impermeant Ca^2+ sensitive fluorescent dyes. Depending on the configuration of the assay, inhibition or modulation of the mPTP either delays the opening of the pore or increases the concentration of Ca^2+ required to induce mPTP opening.
mPTP activity was measured in mitochondria freshly isolated from female Sprague Dawley (250 to 300 gram) rat livers using the following method. Cervical dislocation was performed on the rat. The liver was then perfused in-situ with ˜40 ml cold Dulbecco's Phosphate Buffered Saline (DPBS) prior to dissection and transferred into 30 ml Isolation Buffer (250 mM Sucrose, 10 mM KCl, 1 mM EGTA, 1 mM EDTA, 25 mM HEPES, adjusted to pH 7.5 with 1 M NaOH). Each lobe of the liver was then removed from the buffer, minced using tweezers and a scalpel into ˜5 mm pieces then transferred into a 50 ml Potterton dounce homogenization tube on ice containing 30 ml ice-cold centrifugation buffer (300 mM Trehalose, 25 mM HEPES, 1 mM EGTA, 1 mM EDTA, 10 mM KCl, adjusted to pH 7.5 with 1 M NaOH and supplemented with 0.1% bovine serum albumin (BSA) and complete protease inhibitor cocktail (one tablet of inhibitor per 50 mls of buffer). Homogenisation was carried out using a teflon pestle at 1800 rpm. The slurry was centrifuged at 800 g for 10 min at 4° C., then the supernatant centrifuged at 10,000 g for 10 min. The pellet was washed once with FLIPR assay buffer (75 mM Mannitol, 25 mM Sucrose, 5 mM Potassium Phosphate Monobasic, 20 mM Tris base, 100 mM KCl, 0.1% BSA adjusted to pH 7.4 with 5 M HCl) centrifuged again, then resuspended in FLIPR assay buffer to a concentration of 8.8 mg/ml protein.
Test compounds (10 mM stock in DMSO) were serially diluted in DMSO in half log steps to generate 10 test concentrations (final concentrations in assay 30 μM to 1 nM). An intermediate dilution of 5 μl DMSO samples into 247 μl FLIPR assay buffer was carried out prior to transfer of 5 μl into duplicate wells of a 384 well polypropylene assay plate. Control wells were 0.5% (v/v) DMSO and 5 μM cyclosporin A.
A stock mitochondria/Fluo5N assay solution was prepared in 5.6 ml FLIPR assay buffer (at RT) supplemented with succinate disodium salt (10 mM), rotenone (1 μM), Fluo5N pentapotassium salt (2 μM) and 1 ml mitochondria suspension, then transferred (15 μl) into the assay plate containing test compounds and incubated for 10 min at RT. Assay plates were then transferred to a FLIPR Tetra plate reader (Molecular Devices). Dye fluorescence was then measured every 3 sec for a total of 10 min. After 12 sec, a 2.5 μl bolus of CaCl2 (75 μM) was added from a source plate containing 675 μM CaCl2 in FLIPR assay buffer. IC50 values for test compounds were calculated using the fluorescence value collected at the 10 min timepoint with % inhibition calculated using the DMSO control and cyclosporin A values as […] respectively.

PBS solubility = type: physicochemical; details: aqueous buffer, kinetic from dmso stock; PBS pH 7.4, 2 hr at 25° C.
Protocol: as §1

[3] = Hepatocyte clearance assay, rat; type: in vitro ADME; details: cryopreserved primary rat hepatocytes, average value from two experiments, read-out: Rat heps intrinsic clearance (CLint)
Protocol: (§2) In vitro clearance studies were performed in primary rat and human hepatocytes (BioIVT). Vials of cryopreserved rat or human hepatocytes were thawed in a 37° C. water bath for 2 min. Cells were transferred into thawing medium (Williams' Medium E containing 30% Percoll, 1× GlutaMAX-1, 15 mM HEPES, 5% fetal bovine serum (FBS), 4 μg/ml insulin, 1 μM dexamethasone), centrifuged at 100 g for 10 min then resuspended in culture medium (Leibovitz's L-15 Medium) at a concentration of 0.5×10^6 viable cells/mL (number of viable cells assessed using AO/PI staining). Hepatocytes (198 μL) were transferred into wells of a 96-well non-coated plate and placed in a 37° C. incubator for 10 min. Test compound solutions were prepared from 10 mM stocks in DMSO, diluted to 100 μM in 50% (v/v in water) acetonitrile. Test compound samples (2 μl) were added to each well of hepatocytes and incubated at 37° C. Samples (25 μl) were collected at t=0, 15, 30, […] and 120 min, mixed with 6 volumes (150 μl) of acetonitrile containing internal standard (100 nM alprazolam, 200 nM caffeine and 100 nM tolbutamide), vortexed for 5 min and centrifuged for 45 min at 3220 g. An aliquot of supernatant (100 μL) was diluted with 100 μL ultra-pure water, and the mixture was used for LC/MS/MS analysis. All incubations were performed in duplicate. Peak areas were determined from extracted ion chromatograms. The slope value, k, was determined by linear regression of the natural logarithm of the remaining percentage of the parent drug vs. incubation time curve. The in vitro half-life (in vitro t1/2) was determined from the slope value: in vitro t1/2=0.693/k. Conversion of the in vitro t1/2 (in min) into the in vitro intrinsic clearance (in vitro CLint, in μL/min/1×10^6 cells) was done using the following equation (mean of duplicate determinations): • in vitro CLint=kV/N • V=incubation volume (0.2 mL) • N=number of hepatocytes per well (0.1×10^6 cells). Microsomal Clearance Assay

[4] = Hepatocyte clearance assay, human; type: in vitro ADME; details: cryopreserved primary human hepatocytes, average value from two experiments, read-out: Human heps intrinsic clearance (CLint)
Protocol: as §2

Structure (SMILES) | solubility at 2 h (FaSSIF solubility) | mPTP Rat brain pIC50 (mPTP [1]) | mPTP Rat liver pIC50* (mPTP [2]) | solubility at 2 h (PBS solubility) | hepatocyte CLint at 1 µM [3] | hepatocyte CLint at 1 µM [4]
Cc1cccc(C)c1NC(=O)/C=C/c1ccc2cn[nH]c2c1 [Example 24, (E)-N-(2,6-dimethylphenyl)-3-(1H-indazol-6-yl)acrylamide] | 3 µM (≈ 0.874 µg/mL) | 7.6 | 7.6 | 1.2 µM (≈ 0.35 µg/mL) | – | –
O=C(/C=C/c1ccc2cn[nH]c2c1)Nc1ccccc1CCN1CC(F)C1 [Example 32, (E)-N-(2-(2-(3-fluoroazetidin-1-yl)ethyl)phenyl)-3-(1H-indazol-6-yl)acrylamide] | 296 µM (≈ 108 µg/mL) | – | 5.8 | – | 64 µL/min/1e6 cells | 31 µL/min/1e6 cells
CO[C@H]1Cc2ccccc2[C@@H]1NC(=O)/C=C/c1ccc2cn[nH]c2c1 [Example 37, (E)-3-(1H-indazol-6-yl)-N-((1S,2S)-2-methoxy-2,3-dihydro-1H-inden-1-yl)acrylamide] | 80 µM (≈ 26.7 µg/mL) | – | 7.5 | – | 25 µL/min/1e6 cells | 13 µL/min/1e6 cells
